# Reference: US20240409536A1, “COMPOUNDS AND METHODS FOR MODULATING SPLICING” (REMIX THERAPEUTICS INC., priority 2021, published 2024)
# Experiments:
# Target C mRNA = assay: Gene panel canonical junction qPCR assay, Target C CJ mRNA decrease; type: cell-based; conditions: Homo sapiens, canonical junction qPCR, read-out: Target C IC50 (decrease in CJ mRNA levels)
# Method in brief: (§1)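 A673 or K562 cells treated with compound; canonical exon-exon junction mRNA quantified by cDNA synthesis and RT-qPCR with junction-spanning primer/probe, normalized to GAPDH, GUSB or PPIA and DMSO (2^(−ΔΔCt)). Percent response from set ΔCt assay windows fitted to 4-parameter logistic; IC50 for CJ decrease.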
# HTT mRNA = assay: Gene panel canonical junction qPCR assay, HTT CJ mRNA decrease; type: cell-based, human; conditions: Homo sapiens, canonical junction qPCR, read-out: HTT IC50 (decrease in CJ mRNA levels)
# Method in brief: as §1
# MYB mRNA = assay: Gene panel canonical junction qPCR assay, MYB CJ mRNA decrease; type: cell-based, human; conditions: Homo sapiens, canonical junction qPCR, read-out: MYB IC50 (decrease in CJ mRNA levels)
# Method in brief: as §1
# Target C = assay: HiBiT protein abundance assay, Target C (K562 HiBiT knock-in cells); type: cell-based, human; conditions: 24 hours
# Procedure: (§2) • Promega Nano-Glo HiBiT Lytic Detection System (cat #N3030) • Corning 384-well TC-treated microplates (cat #3570) • Synthego Engineered Cells Knock-In Clones
# (§3) Cells were maintained in IMDM with 10% FBS. Before the assay, cells were diluted with […] growth media (IMDM+1% FBS media) and were seeded in a 384-well plate at a density of 10000 cells/well (for each cell line listed in Table 6). Each compound was prepared as a 10-point 3-fold serial dilution in DMSO with the top dose at a final concentration of 10 μM in the well. Unmodified K562 cells were added at the previously specified density with DMSO to serve as an assay baseline and positive control (PC) and DMSO only with the respective modified cell lines was added to the negative control (NC) columns. Final DMSO concentration was kept at or below 0.25%. Treated cell plates were placed in an incubator at 37° C. with 5% CO2 for 24 hours. After 24 hours, 25 μL of Complete HiBit Lytic reagent was added to each well at room temperature (e.g. one plate requiring 10 mL Lytic Buffer, 100 μL LgBiT Protein, 200 μL Lytic Substrate), shaken for 5 minutes at 600 RPM, then left to sit for 10 minutes for signal to stabilize before reading on a Spark Cyto plate reader (Tecan) with a 500 ms measurement time.
# (§4) To determine compound effects on protein abundance of each target in Table 6, the percent response for each respective cell line was calculated at each compound concentration as follows:
# (§5) For the normalized response at each concentration, a four-parameter logistical regression was fit to the data and the response was interpolated at the 50% value to determine a concentration for protein abundance at 50% (IC50) the untreated control.
# SMN2 mRNA = assay: Gene panel canonical junction qPCR assay, SMN2 CJ mRNA decrease; type: cell-based, human; conditions: Homo sapiens, canonical junction qPCR, read-out: SMN2 IC50 (decrease in CJ mRNA levels)
# Method in brief: as §1
# K562 cells = assay: Cell Titer Glo 2.0 cell viability assay in K562 cells; conditions: 72 hours
# Procedure: Compounds described herein were screened for toxicity in K562 (human chronic myelogenous leukemia) and SH-SY5Y (human neuroblastoma) cells using a Cell Titer Glo 2.0 assay.
# Cells were plated at 500 cells/well (K562 cells) in 45 μL of IMDM supplemented with 10% FBS in a 384-well opaque plate. Wells containing only medium were used as a blank control. Test compounds (e.g., compounds of Formula (I), (II), or (III)) were first serially diluted in DMSO then diluted 1:100 with IMDM+10% FBS. The final concentration of DMSO was 0.1% in each well. The cells were incubated for 72 hours at 37° C. and 5% CO2 before assaying with Cell Titer Glo 2.0 reagent.
# HiBiT-tagged HTT protein = assay: HiBiT protein abundance assay, HTT (K562 HiBiT knock-in cells); type: cell-based, human; conditions: 24 hours
# Procedure: (§6) Compounds described herein were used to screen for effects on quantitative protein abundance using a HiBit assay system (Promega). Quantitative protein abundance was determined by measuring the protein levels of HiBit-tagged protein targets expressed in cell culture via luminescence using the Nano-Glo HiBiT Lytic Detection System, which uses a split complementation assay format to reconstitute NanoBiT enzyme to generate a luminescent signal. A protein abundance assay was developed such that endogenous protein targets could be modified with the HiBiT peptide tag and their abundance could be assessed after compound treatment. Briefly, K562 cell lines containing a HiBiT-modification were treated with various compounds described herein (e.g., compounds of Formulas (I), (II), or (III)). After treatment for 24 hours, the protein abundance of a specific target was determined by measuring luminescence.
# as §2, §3, §4, §5
# HiBiT-tagged MYB protein = assay: HiBiT protein abundance assay, MYB (K562 HiBiT knock-in cells); type: cell-based, human; conditions: 24 hours
# Procedure: as §6, §2, §3, §4, §5
SMILES,IC50 (Target C mRNA) [nM],IC50 (HTT mRNA) [nM],IC50 (MYB mRNA) [nM],IC50 (Target C) [nM],IC50 (SMN2 mRNA) [nM],Viability (K562 cells),IC50 (HiBiT-tagged HTT protein) [nM],IC50 (HiBiT-tagged MYB protein) [nM]
"Cc1cn2cc(NC(=O)c3ccc([C@@]45CCNCC4C5)c4nccnc34)cc(F)c2n1 (stereo in doubt) [Compound 248, 8-{3-azabicyclo[4.1.0]heptan-6-yl}-N-{8-fluoro-2-methylimidazo[1,2-a]pyridin-6-yl}quinoxaline-5-carboxamide 2,2,2-trifluoroacetate]",1000 to 10000,1000 to 10000,100 to 1000,> 10000,< 100,B (B represents 100-1000 nM),1000 to 10000,100 to 1000
Cc1cn2cc(NC(=O)c3ccc(N4CCNCC4)c4nccnc34)cc(F)c2n1 [Compound 111],1000 to 10000,1000 to 10000,100 to 1000,1000 to 10000,< 100,B (B represents 100-1000 nM),100 to 1000,< 100
Cc1cn2nc(NC(=O)c3ccc(C4CCNCC4)c4ccnnc34)cc(C)c2n1 [Compound 113],1000 to 10000,1000 to 10000,1000 to 10000,1000 to 10000,100 to 1000,,1000 to 10000,1000 to 10000
Cn1cc2ccc(NC(=O)c3ccc(N4CCNCC4)c4ccnnc34)cc2n1 [Compound 115],> 10000,> 10000,> 10000,> 10000,> 10000,D (D represents greater than 10 μM in K562 cells),> 10000,> 10000
Cn1cc2c(F)cc(NC(=O)c3ccc(N4CCNCC4)c4ccnnc34)cc2n1 [Compound 116],> 10000,> 10000,> 10000,> 10000,> 10000,C (C represents 1000-9999 nM),> 10000,> 10000
Cc1nc2c(F)cc(NC(=O)c3ccc(N4CCNCC4)c4ccnnc34)cc2s1 [Compound 118],100 to 1000,100 to 1000,100 to 1000,100 to 1000,< 100,A (A represents <100 nM),100 to 1000,< 100
Cc1cn2cc(NC(=O)c3ccc(N4CCNCC4)c4ccnnc34)c(C)cc2n1 [Compound 119],1000 to 10000,1000 to 10000,1000 to 10000,1000 to 10000,< 100,B (B represents 100-1000 nM),1000 to 10000,100 to 1000
Cc1cn2cc(NC(=O)c3ccc(N4CCNCC4)c4ccnnc34)ncc2n1 [Compound 120],> 10000,> 10000,100 to 1000,> 10000,< 100,C (C represents 1000-9999 nM),> 10000,100 to 1000
"Cc1cn2cc(NC(=O)c3ccc(C4=CCNCC4)c4nccnc34)cc(F)c2n1 [Compound 240, N-{8-fluoro-2-methylimidazo[1,2-a]pyridin-6-yl}-8-(1,2,3,6-tetrahydropyridin-4-yl)quinoxaline-5-carboxamide]",100 to 1000,< 100,< 100,100 to 1000,< 100,,< 100,< 100
"Cc1cn2cc(NC(=O)c3ccc(N4C5CNCC54)c4nccnc34)cc(F)c2n1 (stereo not drawn) [Compound 262, 8-{3,6-diazabicyclo[3.1.0]hexan-6-yl}-N-{8-fluoro-2-methylimidazo[1,2-a]pyridin-6-yl}quinoxaline-5-carboxamide]",100 to 1000,100 to 1000,100 to 1000,100 to 1000,< 100,,100 to 1000,100 to 1000
Cc1cn2cc(NC(=O)c3ccc(N4C[C@@H](C)N[C@@H](C)C4)c4ncc(O)nc34)cc(F)c2n1 [Compound 275],> 10000,> 10000,> 10000,> 10000,> 10000,,> 10000,> 10000
Cc1cn2cc(NC(=O)c3ccc(N4C[C@@H](C)N[C@@H](C)C4)c4nccnc34)nc(Cl)c2n1 [Compound 279],> 10000,> 10000,< 100,> 10000,< 100,,1000 to 10000,< 100
COc1ncc2c(N3C[C@@H](C)N[C@@H](C)C3)ccc(C(=O)Nc3cc(F)c4nc(C)cn4c3)c2n1 [Compound 300],100 to 1000,100 to 1000,< 100,100 to 1000,< 100,,100 to 1000,< 100
Cc1cn2cc(NC(=O)c3ccc(N4C[C@@H](C)N[C@H](C)C4)c4nccnc34)cc(F)c2n1 [Compound 312],> 10000,1000 to 10000,< 100,1000 to 10000,< 100,,1000 to 10000,< 100
Cc1cn2cc(NC(=O)c3ccc(N4C[C@H](C)N[C@@H](C)C4)c4nccnc34)cc(F)c2n1 [Compound 313],1000 to 10000,1000 to 10000,< 100,1000 to 10000,< 100,,100 to 1000,< 100
C[C@@H]1CN(c2ccc(C(=O)Nc3cc(F)c4nn(C)cc4c3)c3nccnc23)C[C@@H](C)N1 [Compound 335],> 10000,1000 to 10000,100 to 1000,1000 to 10000,< 100,,1000 to 10000,100 to 1000
Cc1cn2cc(NC(=O)c3ccc(N4C[C@@H](C)N(O)[C@@H](C)C4)c4nccnc34)cc(F)c2n1 [Compound 355],> 10000,> 10000,100 to 1000,1000 to 10000,< 100,,1000 to 10000,100 to 1000
